Laboratory results published in ChEMBL document CHEMBL1811807, “Evaluation of influence of Ap4A analogues on Fhit-positive HEK293T cells; cytotoxicity and ability to induce apoptosis” (Bioorg Med Chem, 2011).
Values belong to the compound of their own block, whether it stands above or below them. The source made the active and inactive calls. No cut-off for these calls is given here.

Columns and labels:
[1] = Drug uptake in Fhit-positive HEK293T cells cytoplasmic compartment at 7.5 uM after 24 hrs using fluorescein labeled compound; type: ADME, cell-based; conditions: human, hek-293t
[2] = Drug uptake in Fhit-positive HEK293T cells at 7.5 uM after 24 hrs using fluorescein labeled compound; type: ADME, cell-based; conditions: human, hek-293t
[3] = Drug uptake in Fhit-positive HEK293T cells Vesicular structures compartment at 7.5 uM after 24 hrs using fluorescein labeled compound; type: ADME, cell-based; conditions: human, hek-293t
[4] = Stability in medium collected from human HEK293T cells assessed as intact compound level at 1 mM incubated up to 48 hrs at 37 degC; type: ADME, cell-based, HEK-293T; conditions: read-out: Stability
[5] = Stability in medium collected from human HEK293T cells assessed as compound degradation level at 1 mM incubated up to 48 hrs at 37 degC; type: ADME, cell-based, HEK-293T; conditions: read-out: Activity
[6] = Stability in HEK293T cellular extract assessed as compound degradation level at 1 mM incubated after 48 hrs at 37 degC; type: ADME, HEK-293T; conditions: human, read-out: Activity
[7] = tested on: HEK-293T; assay: Induction of apoptosis in Fhit-positive HEK293T cells assessed as caspase-3 activation at 5 to 10 uM after 18 hrs by fluorescent assay; type: functional, cell-based; conditions: Homo sapiens
[8] = tested on: HEK-293T; assay: Induction of apoptosis in Fhit-positive HEK293T cells at 5 uM after 24 hrs by Annexin-V assay (reference value: 3.9 +/- 0.95%); type: functional, Homo sapiens
[9] = tested on: HEK-293T; assay: Induction of apoptosis in Fhit-positive HEK293T cells at 5 uM after 48 hrs by Annexin-V assay (reference value: 3.9 +/- 0.95%); type: functional, Homo sapiens
[10] = tested on: HEK-293T; assay: Cytotoxicity in Fhit-positive HEK293T cells after 72 hrs bu MTT assay; type: functional, cell-based; conditions: Homo sapiens
[11] = tested on: HEK-293T; assay: Induction of apoptosis in Fhit-positive HEK293T cells at 20 uM by Annexin-V assay (reference value: 3.9 +/- 0.95%); type: functional, Homo sapiens
[12] = tested on: HEK-293T; assay: Induction of apoptosis in Fhit-positive HEK293T cells assessed as caspase-8 activation at 5 uM after 18 hrs by luminescent assay; type: functional, Homo sapiens
[13] = tested on: HEK-293T; assay: Induction of apoptosis in Fhit-positive HEK293T cells assessed as caspase-9 activation at 5 uM after 18 hrs by luminescent assay; type: functional, Homo sapiens
[14] = biological target: Bis(5'-adenosyl)-triphosphatase (Homo sapiens, UniProt P49789); assay: Inhibition of Fragile histidine triad protein hydrolytic activity
Chain of Bis(5'-adenosyl)-triphosphatase (P49789 whole entry): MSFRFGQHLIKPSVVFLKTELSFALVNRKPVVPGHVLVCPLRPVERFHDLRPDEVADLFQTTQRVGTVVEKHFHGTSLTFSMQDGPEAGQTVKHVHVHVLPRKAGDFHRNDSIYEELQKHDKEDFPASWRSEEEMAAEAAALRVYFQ

[15] = tested on: HEK-293T; assay: Induction of apoptosis in Fhit-positive HEK293T cells assessed as caspase-3 activation at 5 uM in presence of Fhit-specific siRNA after 18 hrs by fluorescent assay; type: functional, cell-based; conditions: Homo sapiens
[16] = tested on: HEK-293T; assay: Induction of apoptosis in Fhit-positive HEK293T cells assessed as caspase-3 activation at 0.5 to 1 uM after 18 hrs by fluorescent assay; type: functional, Homo sapiens
[17] = tested on: HEK-293T; assay: Induction of apoptosis in Fhit-positive HEK293T cells assessed as caspase-8 activation at 5 uM in presence of Fhit-specific siRNA after 18 hrs by fluorescent assay; type: functional, cell-based; conditions: Homo sapiens
[18] = tested on: HEK-293T; assay: Induction of apoptosis in Fhit-positive HEK293T cells assessed as caspase-3 activation at 0.5 to 5 uM after 18 hrs by fluorescent assay; type: functional, Homo sapiens
[19] = tested on: HeLa; assay: Cytotoxicity in Fhit-negative human HeLa cells after 72 hrs bu MTT assay; type: functional, cell-based
[20] = Stability in human HEK293T cellular extract assessed as intact compound level at 1 mM incubated after 48 hrs at 37 degC; type: ADME, cell-based, HEK-293T; conditions: read-out: Stability
[21] = tested on: HL-60; assay: Cytotoxicity in human HL60 cells after 72 hrs bu MTT assay; type: functional, cell-based; conditions: HL-60, 72 h
[22] = tested on: A549; assay: Cytotoxicity in Fhit-negative human A549 cells after 72 hrs bu MTT assay; type: functional, cell-based; conditions: A549, 72 h
[23] = tested on: HEK-293T; assay: Induction of apoptosis in Fhit-positive HEK293T cells assessed as caspase-3 activation at 5 uM after 18 hrs by fluorescent assay; type: functional, Homo sapiens

- Drug uptake [1]: Active
- Drug uptake [2]: Active
- Drug uptake [3]: Active
SMILES: Nc1ncnc2c1ncn2[C@@H]1O[C@H](COP(=O)(S)OCC(O)COP(=O)(S)OCCCCCCNC(=O)c2ccc3c(c2)C2(OC3=O)c3ccc(O)cc3Oc3cc(O)ccc32)[C@@H](O)[C@H]1O (some centres undefined)

- remaining at 48 h, 1000 µM [4]: 95%
- degraded at 48 h, 1000 µM [5]: 95%
- metabolised at 48 h, 1000 µM [6]: 88.7%
SMILES: Nc1ncnc2c1ncn2[C@@H]1O[C@H](COP(=O)(O)OP(=O)(O)OP(=O)(O)OC[C@H]2O[C@@H](n3cnc4c(N)ncnc43)[C@H](O)[C@@H]2O)[C@@H](O)[C@H]1O

SMILES: Nc1ncnc2c1ncn2[C@@H]1O[C@H](COP(=O)(S)OCC(O)COP(=O)(S)OC[C@H]2O[C@@H](n3cnc4c(N)ncnc43)[C@H](O)[C@@H]2O)[C@@H](O)[C@H]1O (mixture of isomers)
- Activity [7]: inactive
- Activity [8]: 10.5%
- Activity [9]: 14.24%
- IC50 [10]: 17.5 µM
- Activity [11]: 12.27%
- Activity [12]: 23%
- Activity [13]: 21%
- remaining at 48 h, 1000 µM [4]: 97%
- Ki [14]: 0.035 µM
- Activity [15]: inactive
- Activity [16]: 10%
- Activity [17]: inactive
- Activity [18]: 17%
- IC50 [19]: > 80 µM
- remaining at 48 h, 1000 µM [20]: 90%
- IC50 [21]: 9 µM
- IC50 [22]: > 80 µM
- Activity [23]: 27%

SMILES: Nc1ncnc2c1ncn2[C@@H]1O[C@H](COP(=O)(S)OCC(COP(=O)(O)S)(COP(=O)(S)OC[C@H]2O[C@@H](n3cnc4c(N)ncnc43)[C@H](O)[C@@H]2O)COP(=O)(S)OC[C@H]2O[C@@H](n3cnc4c(N)ncnc43)[C@H](O)[C@@H]2O)[C@@H](O)[C@H]1O (mixture of isomers)
- IC50 [10]: > 80 µM
- remaining at 48 h, 1000 µM [4]: 97%
- Ki [14]: 0.035 µM

- remaining at 48 h, 1000 µM [4]: 97%
- Ki [14]: 0.035 µM
SMILES: Nc1ncnc2c1ncn2[C@@H]1O[C@H](COP(=O)(S)OCC(COP(=O)(S)OC[C@H]2O[C@@H](n3cnc4c(N)ncnc43)[C@H](O)[C@@H]2O)(COP(=O)(S)OC[C@H]2O[C@@H](n3cnc4c(N)ncnc43)[C@H](O)[C@@H]2O)COP(=O)(S)OC[C@H]2O[C@@H](n3cnc4c(N)ncnc43)[C@H](O)[C@@H]2O)[C@@H](O)[C@H]1O (mixture of isomers)
- IC50 [10]: > 80 µM

- remaining at 48 h, 1000 µM [4]: 97%
- Ki [14]: 0.035 µM
SMILES: Nc1ncnc2c1ncn2[C@@H]1O[C@H](COP(=O)(S)OCC(COP(=O)(S)OC[C@H]2O[C@@H](n3cnc4c(N)ncnc43)[C@H](O)[C@@H]2O)OP(=O)(S)OC[C@H]2O[C@@H](n3cnc4c(N)ncnc43)[C@H](O)[C@@H]2O)[C@@H](O)[C@H]1O (mixture of isomers)
- IC50 [10]: > 80 µM

- remaining at 48 h, 1000 µM [4]: 97%
- Ki [14]: 0.035 µM
SMILES: Nc1ncnc2c1ncn2[C@@H]1O[C@H](COP(=O)(S)OCC(COP(=O)(S)OC[C@H]2O[C@@H](n3cnc4c(N)ncnc43)[C@H](O)[C@@H]2O)OP(=O)(O)S)[C@@H](O)[C@H]1O (mixture of isomers)
- IC50 [10]: > 80 µM

- remaining at 48 h, 1000 µM [4]: 95%
- degraded at 48 h, 1000 µM [5]: 95%
- metabolised at 48 h, 1000 µM [6]: 92.8%
SMILES: Nc1ncnc2c1ncn2[C@@H]1O[C@H](COP(=O)(O)OP(=O)(O)OP(=O)(O)OP(=O)(O)OC[C@H]2O[C@@H](n3cnc4c(N)ncnc43)[C@H](O)[C@@H]2O)[C@@H](O)[C@H]1O [DIADENOSINE TETRAPHOSPHATE]
